Residue numbers refer to the chain shown, from its start.

From article PMC5587309, “Involvement of arginine 878 together with Ca^2+ in mouse aminopeptidase A substrate specificity for N-terminal acidic amino-acid residues” (PLoS ONE, 2017) come the findings set out here.

What all share (assay type): biochemical
In assay [1] the target is T1, wild-type mAPA (Mus musculus, UniProt P16406).
T1 construct: made in house; host or cells: stably transfected CHO-K1 cells
T1 sequence (P16406 1-945): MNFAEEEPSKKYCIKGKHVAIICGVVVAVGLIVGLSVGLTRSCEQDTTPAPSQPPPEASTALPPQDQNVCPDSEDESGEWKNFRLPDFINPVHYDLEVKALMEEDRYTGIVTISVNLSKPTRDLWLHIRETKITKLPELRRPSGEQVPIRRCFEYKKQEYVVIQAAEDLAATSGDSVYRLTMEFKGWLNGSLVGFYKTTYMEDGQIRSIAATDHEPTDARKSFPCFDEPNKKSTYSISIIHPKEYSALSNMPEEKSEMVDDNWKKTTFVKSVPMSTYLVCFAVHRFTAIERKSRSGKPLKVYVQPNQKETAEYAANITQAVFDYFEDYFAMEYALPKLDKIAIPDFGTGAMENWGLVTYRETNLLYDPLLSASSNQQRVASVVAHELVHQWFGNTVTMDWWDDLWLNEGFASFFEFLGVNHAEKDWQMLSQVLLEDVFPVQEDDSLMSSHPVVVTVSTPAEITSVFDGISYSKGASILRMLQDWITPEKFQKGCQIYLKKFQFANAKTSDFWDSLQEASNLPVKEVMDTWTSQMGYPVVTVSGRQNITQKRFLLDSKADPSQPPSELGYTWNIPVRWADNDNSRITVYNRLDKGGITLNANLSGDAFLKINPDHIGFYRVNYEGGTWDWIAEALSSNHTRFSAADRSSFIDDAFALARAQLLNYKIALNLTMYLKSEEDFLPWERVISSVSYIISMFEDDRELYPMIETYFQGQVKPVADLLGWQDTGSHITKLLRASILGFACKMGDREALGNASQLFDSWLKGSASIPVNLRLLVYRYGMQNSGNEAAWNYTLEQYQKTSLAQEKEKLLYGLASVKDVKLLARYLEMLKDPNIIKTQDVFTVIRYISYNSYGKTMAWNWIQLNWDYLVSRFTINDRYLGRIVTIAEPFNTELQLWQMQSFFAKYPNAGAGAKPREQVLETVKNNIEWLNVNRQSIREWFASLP
As to the kind of experiment: Ca2+ activation profile of GluNA hydrolysis by wild-type His-mAPA. The settings on record: 0.5 mM GluNA. The method, then:
Enzyme assays were carried out for wild-type and mutated […] 50 mM Tris-HCl buffer, pH 7.4, with or without 4 mM CaCl2, by monitoring the rate of hydrolysis of GluNA, as previously described. The sensitivity to Ca^2+ of purified wild-type and mutated His-mAPA was determinated by incubating 0.5 mM GluNA with 0 to 4 mM CaCl2 in a final volume of 100 μl of 50 mM Tris-HCl buffer, pH 7.4. All the assays were performed in black 96-well plates (solid black 96-well flat-bottomed non-treated plates with no lid; Corning Costar). All of the enzymatic studies were performed such that substrate hydrolysis rates were maintained below 10% (initial rate conditions). […] Fluorescence signals were monitored by counting photons with a spectrophotometer (Fusion universal microplate analyser; Packard) equipped with a temperature control device and a plate shaker. […] Fig 3 Effects of the divalent cation Ca^2+ on recombinant wild-type and mutated mouse APAs enzymatic activities. Purified mAPAs (2 μg) were incubated at 37°C for 30 min with 0.5 mM GluNA with various concentrations of CaCl2 in a final volume of 100 μl of 50 mM Tris-HCl buffer (pH7.4). (A), APA enzymatic activities expressed as a percentage of maximal hydrolysis velocity obtained with 4 mM Ca^2+ for each purification vs log of Ca^2+ concentration. (B), Effect of increasing Ca^2+ concentration on APA enzymatic activities.

A further assay has as its target T2, R878K mutated mAPA (Mus musculus, UniProt P16406, R878K).
T2 construct: made in house; host or cells: stably transfected CHO-K1 cells
T2 sequence (P16406 1-945 R878K): T1 sequence (P16406 1-945) with R878K
As to the kind of experiment: Inhibition of GluNA hydrolysis by purified recombinant R878K His-mAPA. As to the method:
(§1) Enzyme assays were carried out for wild-type and mutated His-mAPAs in 50 mM Tris-HCl buffer, pH 7.4, with or without 4 mM CaCl2, by monitoring the rate of hydrolysis of GluNA, as previously described. The sensitivity to Ca^2+ of purified wild-type and mutated His-mAPA was determinated by incubating 0.5 mM GluNA with 0 to 4 mM CaCl2 in a final volume of 100 μl of 50 mM Tris-HCl buffer, pH 7.4. All the assays were performed in black 96-well plates (solid black 96-well flat-bottomed non-treated plates with no lid; Corning Costar). All of the enzymatic studies were performed such that substrate hydrolysis rates were maintained below 10% (initial rate conditions). The kinetic curves were monitored by following the increase in fluorescence at 460 nm (lex = 330 nm), induced by the release of the β-naphthylamide fluorogenic part of the substrate by APA. Fluorescence signals were monitored by counting photons with a spectrophotometer (Fusion universal microplate analyser; Packard) equipped with a temperature control device and a plate shaker. The kinetic parameters (Km and kcat) were determined from Michaelis-Menten plots, using GraphPad Prism 4 software (GraphPad) with a final concentration of substrate (GluNA) from 0.005 to 5 mM with or without 4 mM Ca^2+. For evaluation of the substrate specificity of APA with or without 4 mM Ca^2+, the rate of hydrolysis of […] additional substrates, α-L-aspartate-β-naphthylamide (AspNA), α-L-alanine-β-naphthylamide (AlaNA) and basic α-L-lysine-β-naphthylamide (LysNA), was determined under the same experimental conditions as described for GluNA. The sensitivity of wild-type and mutated His-mAPAs to inhibition by [(3S)-3-amino-4-sulfanyl-butane-1-sulfonic acid] (EC33), glutamate-thiol (GluSH), glutamate-phosphonic-acid (GluPO3H2), methionine-thiol (MetSH) and lysine-thiol (LysSH) was determined by establishing dose-dependent inhibition curves for a final GluNA concentration of 0.5 mM in the presence or absence of 4 mM CaCl2. These compounds being linear competitive inhibitors, their Ki were calculated from the formula Ki = IC50/ (1+ [GluNA]/Km).

The target of a further assay is T3, R878A mutated mAPA (Mus musculus, UniProt P16406, R878A).
T3 construct: made in house; host or cells: stably transfected CHO-K1 cells
T3 sequence (P16406 1-945 R878A): T1 sequence (P16406 1-945) with R878A
As to the kind of experiment: Inhibition of GluNA hydrolysis by purified recombinant R878A His-mAPA. The method, then:
as §1

The target of assay [2] is T1, wild-type mAPA. Briefly: Inhibition of GluNA hydrolysis by purified recombinant wild-type His-mAPA. The method, then:
as §1

For `[Ca+2].[Cl-].[Cl-]` [Ca^2+], the EC50 (in general, the concentration giving half of the maximal effect) on wild-type mAPA [1] (0 to 4 mM CaCl2, read-out: EC50 of activation of enzymatic activity) came out at 22 ± 5 µM. For the same compound, on wild-type mAPA [1] (Ca2+ concentration raised from 0 to 4 mM), the “increase of enzymatic activity” value was 7 fold.

For the compound `N[C@@H](CCC(=O)O)P(=O)(O)O` [GluPO3H2, (4R)-4-amino-4-phosphonobutanoic acid], the Ki (commonly a dissociation constant, usually derived from enzyme kinetics or from competition with a known ligand) stood at 0.619 ± 0.021 µM at R878K mutated mAPA, 6.5 ± 0.24 µM at R878A mutated mAPA and 0.074 ± 0.0077 µM on wild-type mAPA [2]. The “times less efficiently inhibited than wild-type” value on R878K mutated mAPA (R878K mAPA, presence of Ca2+) was determined as 8 times; at R878A mutated mAPA (R878A mAPA, presence of Ca2+), 87 times.
